{"source": "patent US7098195B2", "about": "“Fluorinated glucosamine analogs useful for modulating post-translational glycosylations on cells” (Health Research, Inc., priority 2001, dated 2006)", "assay_type_in_all_cases": "cell-based", "key": {"[1]": {"test_system": "HECA-452 epitopes", "test": "Flow cytometric analysis of HECA-452 epitopes on human T-lymphocytes", "conditions": "for HECA-452 Mean Channel Fluorescence: CLA+ T-cells", "procedure": "Only positive cells, which were those cells with fluorescence above background autofluorescence and fluorochrome-conjugated secondary Ab staining, were analyzed.\nFor analysis of CLA expression on T-cells treated with glycoconjugate modifiers, CLA^+ T-cells were first pretreated with neuraminidase (0.1 U/ml at 37° C. for 1 h) to eliminate functional CLA and cleave all HECA-452 reactive epitopes from the cell surface (35–38). Since we wanted to investigate whether these compounds directly affected CLA expression and function, neuraminidase pretreatment followed by incubations with glycosylation modifiers allowed for examination of de novo synthesized CLA/HECA-452 epitopes re-expressed on the cell surface. After neuraminidase digestion, cells were then incubated with tunicamycin (0.02 mM) (an inhibitor of GlcNAc phosphotransferase, the initial step of N-glycosylation), swainsonine (0.23 mM) (an inhibitor of α-mannosidase II and complex-type N-glycosylation), 4-F-GlcNAc (0.05 mM) (putative inhibitor of poly-N-acetyllactosamine biosynthesis), BAG (an inhibitor of O-glycan biosynthesis) (<2 mM) or GlcNAc (5 mM) (negative control, naturally-occurring metabolic counterpart of 4-F-GlcNAc)for 30 h in the presence of human recombinant IL-2. […] Concentrations for BAG were selected based on maximal O-glycosylation inhibitory effects at non-growth inhibitory concentrations as previously reported (39). To determine a suitable concentration of 4-F-GlcNAc for examining glycoconjugate-modifying effects without influencing cell growth or protein synthesis, we performed preliminary growth inhibitory experiments of cells incubated with 4-F-GlcNAc for 2 cell doublings (˜36 h) at 37° C. (cell viability assessed by Trypan-blue exclusion).\nFlow cytometric analysis was performed on human leukocytes utilizing both direct and indirect immunofluorescence staining approaches. All cells utilized for these experiments were washed twice with cold PBS/2%FBS and suspended at 10^7/ml PBS/1% FBS. Primary antibodies, anti-CLA (HECA-452), -CD4, -CD8, CD43 (L60) and PSGL-1 (PL-2) along with the appropriate isotype-matched control antibodies were incubated with the cells for 30 min on ice. Following two washes with PBS/2%FBS, cells were resuspended in PBS/1%FBS and fluorochrome-conjugated secondary antibodies (2 μl) and incubated for 30 min on ice."}, "[2]": {"test_system": "panel of human tumor cell lines as well as normal endothelial cells", "test": "Growth inhibition (IC50) of human tumor cell lines and normal endothelial cells", "conditions": "newly synthesized compounds compared with compounds synthesized by the original method", "description": "Before conducting experiments with newly synthesized 3- and 4-F-GlcNAc the effects of 3- and 4-F-GlcNAc on the growth of a panel of human tumor cell lines as well as normal endothelial cells (i.e. IC50 values) were first determined and compared with the original growth inhibitory action (9 Bernacki, R. J. et al. (1977) J. Supra. Stru., 7:235–250; 10 Sharma, M. and W. Korytnyk (1980) Carbohyd. Res., 79:39–51;11 Sharma, M. et al. (1990). Carbohyd. Res., 198:205–22)."}, "[3]": {"test_system": "HECA-452 epitopes on human hematopoietic KG1a cells", "test": "Flow cytometric analysis of HECA-452 epitopes on KG1a cells", "description": "(§1) In a similar set of experiments, we analyzed the effects of 4-F-GlcNAc on selectin ligand expression and function on the human hematopoietic cell line KGla. KGla cells express a distinct HECA-452-reactive CD44 glycoform that functions as both an E- and L-selectin ligand (Dimitroff, C. J. et al. (2001) J. Cell Biol., 53: 1277–1286; Dimitroff, C. J. et al. (2000) Proc. Nat. Acad. Sci., 97(25):13841–46; Sackstein, R. and Dimitroff, C. J. (2000) Blood, 96: 2765–74.), otherwise known as HCELL, respectively. This specialized glycoform represents a major E-selectin and the primary L-selectin ligand on normal CD34+ HPCs and on leukemic cells, and, therefore, is also implicated in the BM homing aspects and growth-related activities of HPCs in vivo, respectively (Id.). We first performed flow cytometric analysis of HECA-452 antigen and CD44 on 4-F-GlcNAc-treated KGla cells. […] Only positive cells, which were those cells with fluorescence above background autofluorescence and fluorochrome-conjugated secondary Ab staining, were analyzed.\n(§2) Flow cytometric analysis was performed on human leukocytes utilizing both direct and indirect immunofluorescence staining approaches. All cells utilized for these experiments were washed twice with cold PBS/2%FBS and suspended at 10^7/ml PBS/1% FBS. Primary antibodies, anti-CLA (HECA-452), -CD4, -CD8, CD43 (L60) and PSGL-1 (PL-2) along with the appropriate isotype-matched control antibodies were incubated with the cells for 30 min on ice. Following two washes with PBS/2%FBS, cells were resuspended in PBS/1%FBS and fluorochrome-conjugated secondary antibodies (2 μl) and incubated for 30 min on ice. Cells were washed twice with PBS/2%FBS, resuspended in PBS and flow cytometry was performed on a FACScan apparatus equipped with an argon laser tuned at 488 nm (Becton Dickinson)."}, "[4]": {"test_system": "human CLA+ T-cells", "test": "Growth inhibition of human CLA+ T-cell cultures (Trypan-blue exclusion)"}, "[5]": {"test_system": "CD44 on human hematopoietic KG1a cells", "test": "Flow cytometric analysis of CD44 on KG1a cells", "description": "as §1, §2"}, "[6]": {"conditions": "KG1a neuraminidase then recovery in 0.05 mM"}, "[7]": {"conditions": "KG1a neuraminidase then recovery in 0.1 mM"}, "[8]": {"conditions": "KG1a neuraminidase then recovery in 0.5 mM"}}}
{"smiles": "CC(=O)N[C@H]1C(OC(C)=O)O[C@H](COC(C)=O)[C@@H](F)[C@@H]1OC(C)=O", "note": "(stereo partly drawn) [4-F-GlcNAc, 2-acetamido-2-deoxy-1,3,6-tri-O-acetyl-4-deoxy-4-fluoro-D-glucopyranose]", "values": [{"measurement": "HECA-452 epitopes on CLA+ T-cells", "setting": "[1]; 0.05, 0.1 or 0.5 mM for 30 hr after neuraminidase", "value": "marked, concentration-dependent decrease"}, {"measurement": "HECA-452 Mean Channel Fluorescence", "setting": "[1]; neuraminidase then recovery in 0.05 mM", "value": 228}, {"measurement": "HECA-452 Mean Channel Fluorescence", "setting": "[1]; neuraminidase then recovery in 0.1 mM", "value": 217}, {"measurement": "HECA-452 Mean Channel Fluorescence", "setting": "[1]; neuraminidase then recovery in 0.5 mM", "value": 62}, {"measurement": "IC50 values, growth of tumor cell lines and normal endothelial cells", "setting": "[2]", "value": "identical to those that were previously described"}, {"measurement": "de novo re-expression of the HECA-452 epitopes on KG1a cells", "setting": "[3]; 0.05, 0.1 or 0.5 mM after neuraminidase", "value": "inhibited in a concentration-dependent manner"}, {"measurement": "HECA-452 Mean Channel Fluorescence", "setting": "[3]; [6]", "value": 112}, {"measurement": "HECA-452 Mean Channel Fluorescence", "setting": "[3]; [7]", "value": 108}, {"measurement": "HECA-452 Mean Channel Fluorescence", "setting": "[3]; [8]", "value": 43}, {"measurement": "IC10 value (growth inhibition)", "setting": "[4]; 2 cell doublings (~36 h) at 37° C., Trypan-blue exclusion", "value": "> 200", "unit": "µM"}, {"measurement": "growth inhibitory effects on CLA+ T-cell cultures", "setting": "[4]; treated for 36 hr at concentrations less than 0.5 mM", "value": "no inhibition of growth"}, {"measurement": "CD44 % Positive Cell Staining", "setting": "[5]; [6]", "value": 100, "unit": "%"}, {"measurement": "CD44 % Positive Cell Staining", "setting": "[5]; [7]", "value": 100, "unit": "%"}, {"measurement": "CD44 % Positive Cell Staining", "setting": "[5]; [8]", "value": 100, "unit": "%"}, {"measurement": "expression of CD44 on KG1a cells", "setting": "[5]; even at 0.5 mM", "value": "no reduction"}]}
